According to article PMC4767466, “Identification of a novel platelet antagonist that binds to CLEC-2 and suppresses podoplanin-induced platelet aggregation and cancer metastasis” (Oncotarget, 2015):

Legend:
[1] = target: T1, CLEC-2 (C-type lectin-like receptor 2) (Homo sapiens, UniProt Q9P126); assay: SPR (Biacore T200, CLEC-2 amine-coupled to CM5 chip, equilibrium fit); format: binding
T1 construct: gene CLEC1B; recombinant CLEC-2

CLEC-2 (Homo sapiens) = CLEC-2 (Homo sapiens) (UniProt Q9P126); conditions: cited from earlier work
Sequence of CLEC-2 (Homo sapiens) (Q9P126 whole entry): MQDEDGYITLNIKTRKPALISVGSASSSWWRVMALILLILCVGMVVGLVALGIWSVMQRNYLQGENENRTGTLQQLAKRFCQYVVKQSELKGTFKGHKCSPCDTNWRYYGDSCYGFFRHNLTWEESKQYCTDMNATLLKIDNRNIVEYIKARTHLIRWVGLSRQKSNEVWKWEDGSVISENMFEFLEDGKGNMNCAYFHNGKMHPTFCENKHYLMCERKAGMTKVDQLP

T1 sequence (Q9P126 whole entry): as above

| Compound | Kd [1] [µM] | Kd (CLEC-2 (Homo sapiens)) [µM] |
| --- | --- | --- |
| O=C(NCCNC(=O)c1cc([N+](=O)[O-])ccc1O)c1ccccc1 [2CP] | 33.2 ± 1.9 | – |
| podoplanin (from UniProt Q86YL7) | – | 24.5 |
